This is an account of results in PubChem BioAssay (NCI).

Common to all, as to test: NCI anticancer screen, dose series, 48 h
The subject of test [1] is LOX IMVI melanoma.
Test [2] has as its system MDA-N.
Test [3] has as its system UACC-257 melanoma.
The subject of test [4] is MDA-MB-435.
In test [5] the test system is HCT-116 colon.
The subject of test [6] is HT29 colon.
In test [7] the test system is IGROV1 ovarian.
For test [8], the system named is OVCAR-3 ovarian.
In test [9] the test system is A549 NSCLC.
Test [10] concerns UACC-62 melanoma.
In test [11] the test system is NCI-H522 lung.
Test [12] deals with HS 578T breast.
Test [13] has as its system RPMI-8226 leukemia.
In test [14] the test system is SK-MEL-2 melanoma.
For test [15], the system named is MDA-MB-231 breast.
Test [16] concerns SN12C renal.
The subject of test [17] is SNB-19 CNS.
The subject of test [18] is NCI/ADR-RES ovarian.
Test [19] concerns EKVX NSCLC.
Test [20] concerns SK-MEL-28 melanoma.

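Five concentrations, 48 hours, 96-well plates. TGI marks complete inhibition of growth.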

Regarding `O=C(O)Cc1cccc2c(=O)c3cccc([N+](=O)[O-])c3[nH]c12`, the TGI in [1], in [2], in test [3], in [4], in [5] and in test [6] was more than 100 µM in each case. Also, the TGI is more than 100 µM in [7]; more than 100 µM in test [8]; more than 100 µM in test [9]; 76 µM in test [10]; more than 100 µM in test [11]; more than 100 µM in [12]. Moreover, the TGI in [13], in test [14], in test [15], in test [16], in [17] and in test [18] was more than 100 µM in each case.

For `NC(=O)c1sc2nc3ccccc3n2c1N`, the TGI in test [1], in test [2], in test [19], in [3], in test [4] and in [5] was more than 100 µM throughout. The TGI in test [6], in test [7], in test [8], in [20], in [9] and in test [10] was more than 100 µM throughout. In addition, the TGI in test [12] is more than 100 µM; in [13], more than 100 µM; in [14] it was 99.2 µM; in [15] it was more than 100 µM; in test [17], more than 100 µM; in test [18], more than 100 µM.

Take `O=c1[nH]c2nc[nH]c2c(=O)n1C1CCCCC1`: the TGI in test [2], in [19], in test [3], in test [4], in [5] and in [6] was more than 100 µM in each case. The TGI in [7], in test [8], in [20], in test [9], in [10] and in test [11] was more than 100 µM each time. The TGI in test [12], in test [13], in test [14], in test [15], in test [16] and in [17] was more than 100 µM throughout. Also, the TGI in [18] was more than 100 µM.

`C/C(N)=N/OCc1nc(C)no1`: the TGI in test [2], in test [19], in test [3], in test [4], in test [5] and in [6] was more than 100 µM each time. The TGI in test [8], in test [20], in test [9], in [10], in test [11] and in [12] was more than 100 µM in each case. Besides, the TGI in test [13], in test [15], in test [16], in test [17] and in test [18] was more than 100 µM in each case.

On to `COc1ccc(NC(=O)C(=O)Cc2nc3ccc(C(=O)c4ccccc4)cc3[nH]c2=O)c([N+](=O)[O-])c1`, for which the TGI in [1] is more than 100 µM; in [2], more than 100 µM; in test [19] it was more than 100 µM; in test [3] it was more than 100 µM; in test [4], 66.1 µM; in [5], more than 100 µM. For the same compound, the TGI in [6] was 35.9 µM; in test [7], 60.7 µM; in test [8] it was more than 100 µM; in [20], more than 100 µM; in test [9], more than 100 µM; in test [10] it was 78.5 µM. The TGI in test [11] is 51.4 µM; in [12], more than 100 µM; in test [14], more than 100 µM; in [15], more than 100 µM; in test [16] it was more than 100 µM; in test [17], more than 100 µM. For the same compound, the TGI in test [18] is 33.2 µM.

As to `COc1cc(C(=O)O)c(-c2cc3c(cc2C=O)OCO3)c(OC)c1OC`, the TGI in test [1], in test [2], in test [3], in test [4], in test [5] and in [6] was more than 10 µM each time. Besides, the TGI in [7], in test [8], in test [20], in test [9], in test [10] and in [11] was more than 10 µM throughout. In addition, the TGI in [12], in test [13], in [15], in test [16], in test [17] and in test [18] was more than 10 µM in each case.

With `c1cncc(CSc2ncnc3nc[nH]c23)c1`, the TGI in [1], in test [2], in [19], in test [3], in test [4] and in [5] was more than 100 µM in each case. The TGI in test [6], in test [7], in test [8], in test [20], in [9] and in test [10] was more than 100 µM each time. The TGI in [11], in test [12], in test [14], in [15], in test [16] and in [17] was more than 100 µM each time. This compound also yielded a TGI in test [18] of more than 100 µM.

`COc1cccc(C(NC2=NCCC=N2)c2cc3c(cc2O)OCO3)c1O` (configuration not stated): the TGI in test [1] was 41.2 µM; in test [2], more than 100 µM; in test [19], more than 100 µM; in test [3], more than 100 µM; in test [4] it was 88.8 µM; in [5] it was 62.5 µM. Moreover, the TGI in test [6] was more than 100 µM; in test [7], more than 100 µM; in test [8], 59.7 µM; in test [20] it was more than 100 µM; in test [9], more than 100 µM; in test [10], 59 µM. Further, the TGI in test [11] is 40.2 µM; in test [12] it was 79.7 µM; in test [13], 50 µM; in test [14] it was 72.5 µM; in [15], 59.9 µM; in test [16], 41.4 µM. The TGI in test [17] is more than 100 µM.

As for `c1ccc2c(-c3csc(-c4c[nH]c5ccccc45)n3)c[nH]c2c1`, the TGI in test [1], in test [2], in test [19], in test [3], in [4] and in test [5] was more than 100 µM throughout. The TGI in test [6] was more than 83.6 µM; in [7], more than 100 µM; in [8] it was more than 100 µM; in test [20] it was more than 100 µM; in [9], more than 100 µM; in [10], more than 100 µM. In addition, the TGI in test [12], in test [14], in test [15], in [16], in test [17] and in [18] was more than 100 µM throughout.

On to `CC(=O)O[C@@H]1[C@H]2[C@@H](OC(=O)c3ccccc3)[C@@H](C)C[C@]2(O)[C@H](OC(C)=O)[C@@]2(C)[C@@H]3C[C@@](C)(OC(C)=O)C[C@@H](OC(C)=O)[C@@]3(OC(C)=O)C[C@@]12C`, for which the TGI in test [1], in test [2], in test [19], in [3], in test [4] and in test [5] was more than 10 µM throughout. Further, the TGI in [7], in test [8], in [10], in test [11], in [12] and in test [14] was more than 10 µM in each case. In addition, the TGI in test [15], in test [16], in test [17] and in [18] was more than 10 µM in each case.

Turning to `Nc1c(Cl)cc(-c2nc3ccccc3s2)cc1Cl`, the TGI in test [2], in test [19], in test [3], in [4], in test [5] and in test [6] was more than 100 µM each time. For the same compound, the TGI in [7], in test [8], in [20], in [9], in test [10] and in test [11] was more than 100 µM each time. Besides, the TGI in test [12], in test [14], in [15], in test [16], in test [17] and in test [18] was more than 100 µM each time.

`Cc1nc(N(C(C)C)C(C)C)c(C(C)C)o1`: the TGI in [1], in test [2], in test [19], in test [3], in test [4] and in [5] was more than 100 µM each time. For the same compound, the TGI in test [6], in [7], in [8], in [20], in test [9] and in [10] was more than 100 µM in each case. For the same compound, the TGI in test [11], in test [12], in [15], in [16], in test [17] and in [18] was more than 100 µM in each case.

`C=CCNC(=O)CN(CC(=O)O)C1CCCCC1N(CC(=O)O)CC(=O)O` (configuration not stated): the TGI in [1], in test [2], in test [3], in [4], in test [5] and in test [6] was more than 100 µM throughout. For the same compound, the TGI in test [7], in [8], in test [20], in [9], in [10] and in test [11] was more than 100 µM throughout. For the same compound, the TGI in test [12], in test [13], in test [15], in test [16], in [17] and in test [18] was more than 100 µM each time.

For the compound `FC(F)(F)c1cccnc1Sc1nc2ccccc2s1`, the TGI in test [2], in test [19], in [3], in test [4], in test [5] and in test [6] was more than 100 µM throughout. In addition, the TGI in test [7], in test [8], in test [20], in test [9], in test [10] and in [11] was more than 100 µM throughout. The TGI in [12], in test [13], in test [14], in [15], in test [16] and in test [17] was more than 100 µM each time. This compound also returned a TGI in test [18] of more than 100 µM.

For `C/C(=N\NC(=S)Nc1ccc([N+](=O)[O-])cc1)c1nc2ncccc2[nH]1`, the TGI was more than 100 µM in test [2]; 3.2 µM in [19]; 2.96 µM in [3]; 4.42 µM in [4]; 6.12 µM in [5]; 2.04 µM in [6]. Moreover, the TGI was determined as 4.75 µM in test [7]; 17.7 µM in [8]; 3.2 µM in [20]; 19.1 µM in [9]; 3.25 µM in test [11]; 6.51 µM in [12]. The TGI in test [13] is 9.3 µM; in test [14] it was 4.06 µM; in test [15], more than 100 µM; in test [16] it was 56.6 µM; in test [17], 4 µM; in [18], 5.22 µM.
